Source: publication PMC9814590, “Precise heteroatom doping determines aqueous solubility and self-assembly behaviors for polycyclic aromatic skeletons” (Communications Chemistry, 2022)
Converted amounts (≈) assume the structure as drawn.

How the values were obtained:
Type in all cases: physicochemical
Water-contact angle test = assay: Water-contact angle test
Description: (§1) With the 12 combinatorial molecules in hand, we initially examined their hydrophilicity and aqueous solubility. The water-contact angle test gave a clear hydrophilic assessment for these molecules (Table 1 and Supplementary Table 1). The conventional shake-flask method was employed to obtain the thermodynamic aqueous solubility data[29]. […]. In pursuit of both improving the hydrophilicity and aqueous solubility, we planned to introduce dual N/O heteroatoms to C1 skeleton as listed in group 2. […]. The turning point comes to C9 that doping two N atoms on the phenanthrene subcomponent besides the oxazole part. A water contact angle of 0° indicates the high hydrophilicity of C9. […].
Supplementary Table 1. Collected water contact angles for C2 – C12 […]

[1] = Hansen solubility parameters (HSP) from rated solvent library, optimized in HSPiP; Ra and RED versus water; details: for Water2 Ra: distance to water HSP of dense condition (18.1, 17.1, 16.9); for Water1 Ra: distance to water HSP of dilute condition (15.1, 20.4, 16.5); for δD (dispersion solubility parameter) / δH (hydrogen bonding solubility parameter) / δP (polar solubility parameter) / R0 (intrinsic distance parameter): experimentally rated solvent library, HSPiP; for R0 (intrinsic distance parameter): unit assumed; for Water1 RED (Ra/R0): water HSP of dilute condition (15.1, 20.4, 16.5); for Water2 RED (Ra/R0): water HSP of dense condition (18.1, 17.1, 16.9)
Description: To figure out why the doped N/O heteroatoms on the aromatic skeletons can both influence their hydrophilicity and aqueous solubility, we employed the Hansen solubility parameters (HSP) to interpret this phenomenon. This method developed by Charles Hansen et al.[30] has found broad use both in academia and industry for predicting the compatibility or affinity between two substances[31]–[34]. The key elements of HSP approach are three partial solubility parameters consisting of δD, δP, and δH, in which δD represents the dispersion solubility parameter, δP represents the polar solubility parameter, and δH represents the hydrogen bonding solubility parameter, respectively.
The three partial parameters define a three-dimensional coordinate for substances in a virtual solubility space (Hanse space). In principle, the closer the two coordinates of HSP are, the more likely the substances will dissolve in each other, which is consistent with the notion of “like dissolves like” rule. To better describe the degree of closeness, another solubility parameter “distance” (Ra) is introduced as follows:1 Ra2=4(δD2−δD1)^2+(δP2−δP1)^2+(δH2−δH1)^2 […]
Meanwhile, each substance has an intrinsic distance parameter R0, together with HSP as a center point that would define a solubility sphere in Hansen space. If the HSP coordinate of one substance is located inside the sphere of another substance, it indicates a high affinity between them. For solute and solvent cases, a dissolution process may happen. Otherwise, a low affinity is inferred if one substance is excluded from the sphere of another.
The total HSP data set of C1-C12 was experimentally tested and optimized from a combination of solvents library and listed in Table 1 (Supplementary Methods 1.3, Supplementary Fig. 1). […] For the unique H2O, there are three sets of HSP for different conditions. The first is the HSP of single-molecule (pure) water (15.5, 16.0, 42.3), in which the δH is more salient than δD and δP, it well explains the strong hydrogen bonding interactions between water molecules. However, its use in the prediction of solubility in water is not deemed appropriate in most cases. The second and third sets of HSP for water are those derived from solubility data and should be chosen case by case. The second set of HSP (15.1, 20.4, 16.5) was derived from experimental data set exceeding 1% soluble compounds in water, which may be appropriate for the diluted solute case (denoted as Water1). The third set of HSP (18.1, 17.1, 16.9) was derived from experimental data set of complete miscible compounds with water, which may be appropriate for the dense solute case (denoted as Water2).
1.3 Determination of solubility-related parameters […]
(2) Determination of Hansen solubility parameters (HSP)3
A collection of solvents was used to estimate the HSPs values of C2–C12, which includes dichloromethane, chloroform, toluene, diethyl ether, hexane, dioxane, pyridine, tetrahydrofuran, dimethyl sulfoxide, N, N-dimethyl formamide, acetone, acetonitrile, methanol and ethanol. If the specific solvent (0.5 mL) can dissolve at least 1.0 mg of certain solute would be rated as good solvent, otherwise as bad solvent. For C1, it’s expected that this molecule can only dissolve in nonpolar solvents (recrystallized from CCl4 according to literature report). We […]
methanol, ethanol and water would be bad solvents. These rated solvent s datasets for C1–C12 were imported to HSPiP software that developed by Dr. Hansen, Abbott and Hiroshi to optimize and obtain three partial HSPs values.

[2] = Shake-flask thermodynamic aqueous solubility (1H NMR quantification); details: for solubility at 24 h: water, thermodynamic from solid, D2O, room temperature
Description: as §1
1.3 Determination of solubility-related parameters
(1) Measurement of aqueous solubility
We applied the classic shake-flask method to determine the solubility data of C2–C12 in water. Typically, an excess amount of C2 was added to 1.0 mL of D2O, and the mixture was stirred at room temperature for 24 h. After that, the phase separation of saturated solution was finished through centrifugation. 1H NMR technology was applied to quantitatively analysis the concentration of solute using tetrahydrofuran as internal standard. Actually, we didn’t synthesize C1 to obtain its solubility data from experimental method because it’s obvious that this compound would be insoluble in water from reasonable judgement. Alternatively, due to its high hydrophobicity and measured water solubility data from C2–C8 counterpart, we can estimate this value must be at least lower than 0.1 mg / mL as well. […]

[3] = Apparent association constants by 1H NMR shift analysis (dimeric model); details: for Ka (CHCl3), apparent association constant: CHCl3, dimeric model; for Ka (MeOH-H2O), apparent association constant: MeOH-H2O (legend: H2O), dimeric model
Description: As is known, high concentration as a driving force to promote the molecular aggregation in solution is ubiquitous and well recognized[37],[38]. To compare the high concentration induced aggregation phenomenon with our case, we measured their apparent association constants (Ka) by ^1H NMR shift analysis after simplifying the aggregates to a dimeric model[39] (Supplementary Figs. 17–28). As listed in Fig. 3b, C10-C12 in chloroform display relatively weak association ability induced by high concentration factor. […] Meanwhile, the ^13C NMR spectra gave more informative details about C10-C12 in different existing states (Fig. 3c, Supplementary Figs. 13 and 14). […] In comparison, these signals became broadened and moved to upfield with a maximal 3.19 ppm shift in D2O conditions, which was almost in consistent with the solid-state ^13C magic-angle spinning (MAS) NMR spectrum despite its much broader signature. Moreover, the luminescent emissions of C10-C12 in various solvent ratios and solid-state were also screened (Fig. 3d, Supplementary Figs. 33 and 34). […] Unexpectedly, the maximal emissions in water are close to the solid state of C10-C12 (e.g., 472 nm in water versus 486 nm in solid for C10), indicative of a homologous excited-state energy transfer pathway.

Compound | Water contact angle (Water-contact angle test; C1 not synthesized, deduced and estimated by comparison with C2) [°] | Water2 Ra [1] [MPa^0.5] | Water1 Ra [1] [MPa^0.5] | Water contact angle (Water-contact angle test; C2-C12) [°] | solubility at 24 h [2] [µg/mL] | δD (dispersion solubility parameter) [1] | δH (hydrogen bonding solubility parameter) [1] | δP (polar solubility parameter) [1] | R0 (intrinsic distance parameter) [1] [MPa^0.5] | Aqueous solubility [2] | Water1 RED (Ra/R0) [1] | Ka (CHCl3), apparent association constant [3] | Ka (MeOH-H2O), apparent association constant [3] | Water2 RED (Ra/R0) [1]
C1=C(c2ccccc2)Cc2c1c1ccccc1c1ccccc21 [C1, 2-phenyl-1H-cyclophen[l]phenanthrene, reference compound] | >140 | 20.8 | 23.8 |  |  |  |  |  |  |  |  |  |  | 
c1ccc(-c2nc3c4cccnc4c4ncccc4c3[nH]2)nc1 [C6] |  | 5.9 | 7.9 | 0 | < 100 | 16.1 (MPa)^0.5 | 16.8 (MPa)^0.5 | 12.8 (MPa)^0.5 | 7.9 |  |  |  |  | 
c1cncc(-c2nc3c4cccnc4c4ncccc4c3[nH]2)c1 [C5] |  | 3.7 | 5.3 | 0 | < 100 | 16.4 (MPa)^0.5 | 16.5 (MPa)^0.5 | 15.8 (MPa)^0.5 | 7 |  |  |  |  | 
c1ccc(-c2nc3c4cccnc4c4ncccc4c3o2)cc1 [C9] |  | 5.1 | 10.8 | 0 | 900 (≈ 3030 µM) | 18.6 (MPa)^0.5 | 15.5 (MPa)^0.5 | 12.3 (MPa)^0.5 | 10 | slightly soluble | 1.1 |  |  | 
c1ccc(-c2nc3c4ccccc4c4ccccc4c3o2)cc1 [C7] |  | 13.9 | 18.2 | 135.2 | < 100 | 19.5 (MPa)^0.5 | 7.5 (MPa)^0.5 | 7.2 (MPa)^0.5 | 6.6 | barely soluble in water | 2.8 |  |  | 
c1ccc(-c2nc3c4cccnc4c4ncccc4c3o2)nc1 [C12] |  | 10.9 | 16.4 | 0 | 150000 (≈ 503000 µM) | 19.4 (MPa)^0.5 | 17.2 (MPa)^0.5 | 6.5 (MPa)^0.5 | 12.3 |  | 1.3 | 13(1) M^-1 | 918(77) M^-1 | 
c1ccc(-c2nc3c4cccnc4c4ncccc4c3[nH]2)cc1 [C3] |  | 10.5 | 14.1 | 0 | < 100 | 17.9 (MPa)^0.5 | 10.1 (MPa)^0.5 | 9.1 (MPa)^0.5 | 5.4 |  |  |  |  | 1.9
c1ccc(-c2nc3c4ccccc4c4ccccc4c3[nH]2)cc1 [C2] |  | 9.9 | 13.3 | 140.6 | < 100 | 18.5 (MPa)^0.5 | 8.1 (MPa)^0.5 | 12.6 (MPa)^0.5 | 4.5 |  |  |  |  | 
c1ccc(-c2nc3c4ccccc4c4ccccc4c3o2)nc1 [C8] |  | 13.8 | 18.1 | 128.6 | < 100 | 19.4 (MPa)^0.5 | 7.8 (MPa)^0.5 | 7.0 (MPa)^0.5 | 8.8 | barely soluble in water | 2.1 |  |  | 1.6
c1cnc2c(c1)c1nc(-c3ccncc3)oc1c1cccnc12 [C10] |  | 10.8 | 15 | 0 | 40000 (≈ 134000 µM) | 17.7 (MPa)^0.5 | 15.8 (MPa)^0.5 | 6.3 (MPa)^0.5 | 10.7 |  | 1.4 | 8(2) M^-1 | 772(47) M^-1 | 
c1cnc2c(c1)c1nc(-c3ccncc3)[nH]c1c1cccnc12 [C4] |  | 3.8 | 5.5 | 0 | < 100 | 16.4 (MPa)^0.5 | 16.1 (MPa)^0.5 | 15.6 (MPa)^0.5 | 7.5 |  |  |  |  | 
